Measurements reported in ChEMBL document CHEMBL6114999, “Natural pyrrolo[1,2-a]quinazolinone derivatives: Design, synthesis, characterization, and bio-evaluation as novel antiviral agents” (Eur J Med Chem, 2025).
pEC50: −log10 of the molar value. Activity calls are given as the source filed them. The calls are words filed in the database; no cut-off is given here.

Tests used:
[1] = system: Enterovirus; assay: Antiviral activity against EV71 infected in human RD cells assessed as protection from virus-induced cytopathogenicity incubated for 48 hrs by MTT assay; assay type: functional, organism-based; conditions: Enterovirus, 71, RD
[2] = Cytotoxicity against human RD cells incubated for 48 hrs by MTT assay; assay type: toxicity, cell-based
[3] = Selectivity index, ratio of CC50 for cytotoxicity against human RD cells to EC50 for antiviral activity against EV71 infected in human RD cells; assay type: toxicity, cell-based; conditions: read-out: Ratio CC50/EC50
[4] = system: Coxsackievirus B3; assay: Antiviral activity against CVB3 infected in HEp-2 cells assessed as protection from virus-induced cytopathogenicity incubated for 48 hrs by MTT assay; assay type: functional, organism-based; conditions: Enterovirus B, HEp-2, 48 h
[5] = Cytotoxicity against human HEp-2 cells incubated for 48 hrs by MTT assay; assay type: toxicity, cell-based
[6] = Selectivity index, ratio of CC50 for cytotoxicity against HEp-2 cells to EC50 for antiviral activity against CVB3 infected in HEp-2 cells; assay type: toxicity, cell-based; conditions: human, read-out: Ratio CC50/EC50
[7] = system: Coxsackievirus B3; assay: Antiviral activity against CVB3 infected in HEp-2 cells assessed as inhibition of virus-induced cell death at 25 to 100 uM incubated for 48 hrs by MTT assay; assay type: functional, organism-based; conditions: dose 25-100 µM
[8] = system: Enterovirus; assay: Antiviral activity against EV71 infected in human RD cells assessed as inhibition of virus-induced cell death at 25 to 100 uM incubated for 48 hrs by MTT assay; assay type: functional, organism-based; conditions: 71, dose 25-100 µM
[9] = system: Coxsackievirus B3; assay: Antiviral activity against CVB3 infected in HEp-2 cells assessed as inhibition of virus-induced cell death at 100 uM incubated for 48 hrs by MTT assay relative to control; assay type: functional; conditions: Enterovirus B, HEp-2, 48 h
[10] = system: Enterovirus; assay: Antiviral activity against EV71 infected in human RD cells assessed as inhibition of virus-induced cell death at 100 uM incubated for 48 hrs by MTT assay relative to control; assay type: functional, 71; conditions: Enterovirus, 71, RD
[11] = system: Coxsackievirus B3; assay: Antiviral activity against CVB3 infected in HEp-2 cells assessed as inhibition of virus-induced cell death at 25 uM incubated for 48 hrs by MTT assay relative to control; assay type: functional; conditions: Enterovirus B
[12] = system: Coxsackievirus B3; assay: Antiviral activity against CVB3 infected in HEp-2 cells assessed as inhibition of virus-induced cell death at 50 uM incubated for 48 hrs by MTT assay relative to control; assay type: functional; conditions: Enterovirus B
[13] = system: Enterovirus; assay: Antiviral activity against EV71 infected in human RD cells assessed as inhibition of virus-induced cell death at 25 uM incubated for 48 hrs by MTT assay relative to control; assay type: functional; conditions: Enterovirus, 71, RD
[14] = system: Enterovirus; assay: Antiviral activity against EV71 infected in human RD cells assessed as inhibition of virus-induced cell death at 50 uM incubated for 48 hrs by MTT assay relative to control; assay type: functional; conditions: Enterovirus, 71, RD
[15] = system: Coxsackievirus B3; assay: Antiviral activity against CVB3 infected in HEp-2 cells assessed as inhibition of virus-induced cell death at 200 uM incubated for 48 hrs by MTT assay; assay type: functional, organism-based
[16] = system: Enterovirus; assay: Antiviral activity against EV71 infected in human RD cells assessed as inhibition of virus-induced cell death at 200 uM incubated for 48 hrs by MTT assay; assay type: functional, organism-based; conditions: 71

Structure (SMILES) | pEC50 [1] | CC50 at 48 h [2] | selectivity ratio [3] | pEC50 [4] | CC50 at 48 h [5] | selectivity ratio [6] | antiviral activity call (active/inactive) [7] | inhibition [8] | inhibition at 100 µM [9] | inhibition at 100 µM [10] | inhibition at 25 µM [11] | inhibition at 50 µM [12] | inhibition at 25 µM [13] | inhibition at 50 µM [14] | inhibition [15] | inhibition [16]
COC(=O)C(Cc1c[nH]c2ccccc12)NC(=O)C12CCC(=O)N1c1ccccc1C(=O)N2C (centres undefined) | 4.54 | 282 µM | 9.8 | 4.18 | 202 µM | 3.1 | Active | Active | 63.7% | 78% | 27.1% | 40.3% | 55.7% | 65.7% |  | 
COC(=O)C(Cc1c[nH]c2ccccc12)NC(=O)C12CCC(=O)N1c1ccccc1C(=O)N2 (centres undefined) | 4.54 | 230 µM | 8 | 4.37 | 177 µM | 4.1 | Active | Active | 83.1% | 89.1% | 30.8% | 45.7% | 65.8% | 74% |  | 
O=C1NC2(C(=O)O)CCC(=O)N2c2ccccc21 (centres undefined) |  | 323 µM |  | 3.84 | 296 µM | 2.1 |  |  |  |  |  |  |  |  | Active; Compared To Ribavirin The Antiviral Effect Is Comparable Or Slightly Inferior | inactive
CN1C(=O)c2ccccc2N2C(=O)CCC12C(=O)O (centres undefined) |  | 327 µM |  | 3.82 | 276 µM | 1.8 |  |  |  |  |  |  |  |  | Active; Compared To Ribavirin The Antiviral Effect Is Comparable Or Slightly Inferior | inactive
COC(=O)C(CCSC)NC(=O)C12CCC(=O)N1c1ccc(Cl)cc1C(=O)N2 (centres undefined) | 4.27 | 235 µM | 4.4 | 4.22 | 214 µM |  | Active | Active | 58.8% | 58.7% | 29.8% | 49.9% | 50.3% | 58.8% |  | 
CC(NC(=O)C12CCC(=O)N1c1ccc(Cl)cc1C(=O)N2)c1ccccc1 (centres undefined) | 4.53 | 270 µM | 9.2 | 3.99 | 239 µM | 2.3 | Active | Active | 47.9% | 71.7% | 16% | 31.5% | 44.4% | 53.3% |  | 
CSCCNC(=O)C12CCC(=O)N1c1ccccc1C(=O)N2 (centres undefined) |  | 288 µM |  |  | 210 µM |  |  |  | 26.9% | 3.9% | 7.9% | 12.3% | 5.7% | 7.3% |  | 
CC(NC(=O)C12CCC(=O)N1c1ccccc1C(=O)N2)c1ccccc1 (centres undefined) | 4.49 | 256 µM | 7.9 |  | 205 µM |  |  | Active |  |  |  |  |  |  |  | 
O=C1NC2(C(=O)O)CCC(=O)N2c2ccc(Cl)cc21 (centres undefined) |  | 317 µM |  | 3.85 | 245 µM | 1.7 |  |  |  |  |  |  |  |  | Active; Compared To Ribavirin The Antiviral Effect Is Comparable Or Slightly Inferior | inactive
CS(=O)(=O)CCNC(=O)C12CCC(=O)N1c1ccccc1C(=O)N2 (centres undefined) |  | 262 µM |  |  | 176 µM | 3.2 |  |  | 11.9% | 1.6% | 3.6% | 6.5% | 2% | 3.2% |  | 
CN1C(=O)c2ccccc2N2C(=O)CCC12C(=O)NCCS(C)(=O)=O (centres undefined) |  | 251 µM |  | 4.19 | 205 µM |  | Active |  | 55.2% | 62.3% | 38.9% | 46.6% | 33% | 56.7% |  | 
O=C1NC2(C(=O)NCCc3c[nH]c4ccccc34)CCC(=O)N2c2ccc(Cl)cc21 (centres undefined) | 4.77 | 140 µM | 8.3 | 4.47 | 180 µM | 5.4 | Active | Active | 65.7% | 88.4% | 38.5% | 77.3% | 57.8% | 66.8% |  | 
